Data reported in US11219625B2, “Inhibitors of N-linked glycosylation and methods using same” (YALE UNIVERSITY, priority 2015, dated 2022).

Experiments:
Type in all cases: cell-based
[1] = tested on: EGFR; test: Surface biotinylation of EGFR, H3255 cells; settings: H3255, 10 μM NGI-1, 24 h
Description: FIGS. 3A-3F illustrate the finding that NGI-1 disrupts EGFR glycosylation and cell surface expression. FIG. 3A illustrates EGFR western blots from H3255 treated with or without 10 μM NGI-1 for 24 h. Molecular weight size shifts are compared to PNGase digestion and tunicamycin treatment alone. FIG. 3B illustrates EGFR localization in H3255 cells after 24 h 10 μM NGI-1 treatment analyzed by western blot. Plasma membrane proteins present on the surface of H3255 cells were biotinylated using a non-permeable form of biotin, sulfo-NHS—SS-biotin, and precipitated by streptavidin agarose beads. Biotin-labeled plasma membrane proteins and the fraction of non-biotinylated proteins were subjected to SDS-PAGE and analyzed by western blot against EGFR. FIG. 3C illustrates EGFR localization in H3255 cells after 24 h 10 μM NGI-1 treatment analyzed by confocal microscopy. H3255 cells were subjected to immunofluorescence for EGFR protein (red) counterstained with (CRT; green) and colocalization was determined by confocal microscopy. Nuclei were counterstained with ToPro3 (cyan). […] Bar, 10 μm. FIG. 3D illustrates quantification of colocalization using Image J Colormap Software. […] ITB1 localization after 10 μM NGI-1 for 48 h analyzed by (FIG. 3E) surface biotinylation (FIG. 3F) confocal microscopy (green). […]

[2] = tested on: PC9 cells; test: MTT proliferation assay, PC9; settings: PC9, 10 μM NGI-1, after 3 days, p<0.001
Description: FIGS. 4A-4H illustrate the finding that NGI-1 blocks RTK driven proliferation. FIG. 4A illustrates western blot analysis of EGFR phosphorylation (Y1173) and gel mobility in PC9 (EGFR-mutant) and A549 (k-ras mutant) NSCLC cells after 10 μM NGI-1 treatment for 24 h. […] Actin expression was used as a control for protein loading. FIG. 4B illustrates MTT assays results of PC9 following treatment with 10 μM NGI-1 or 1 μM tunicamycin for a total of 5 d. Relative proliferation id reported in fold increase from day 0. FIG. 4C illustrates MTT assays results of A549 following treatment with 10 μM NGI-1 or 1 μM tunicamycin for a total of 5 d. Relative proliferation id reported in fold increase from day 0. FIG. 4D illustrates protein phosphorylation profiles of PC9 cells analyzed by phospho-protein array to assess the response of PC9 to 10 μM NGI-1 for 24 h. FIG. 4E illustrates protein phosphorylation profiles of A549 cells analyzed by phospho-protein array to assess the response of A549 to 10 μM NGI-1 for 24 h. […]
Growth rates were determined by CellTiter 96 NonRadioactive Cell Proliferation Assay (Promega; Madison, Wis. USA) according to the manufacturer's directions. […] Cell numbers were estimated after 0, 3, and 5 days by adding MTT [(3-(4,5-Dimethylthiazol-2-yl)-2,5-diphenyltetrazolium bromide] reagent to the wells 4 hours before taking the spectrophotometric reading (absorbance at 570 nm).

[3] = tested on: HCC827 cells; test: Cell cycle distribution by flow cytometry, HCC827; settings: HCC827, NGI-1 24 h, p<0.01
Description: FIGS. 7A-7D illustrate EGFR kinase domain mutant cell lines growth inhibition and cell cycle arrest response to NGI-1. FIG. 7A illustrates MTT assays to determine the effects of NGI-1 on growth of H3255 cells. FIG. 7B illustrates MIT assays to determine the effects of NGI-1 on growth of HCC827 cells. EGFR kinase domain mutant cell lines H3255 and HCC827 cells were untreated or treated with 10 μM NGI-1 for 5 d. […] FIG. 7C illustrates cell cycle distribution of H3255 after 24 h NGI-1 treatment for 24 h determined by flow cytometry. FIG. 7D illustrates cell cycle distribution of HCC827 after 24 h NGI-1 treatment for 24 h determined by flow cytometry.
For the assessment of cell cycle distribution, 1×10^6 cells were collected, washed once with ice-cold PBS and fixed in ice-cold 70% ethanol overnight at −20° C. Thereafter, cells were washed twice with PBS and incubated for 30 min at room temperature in 200 μL of Guava Cell Cycle Reagent (Guava Technologies). Cytofluorometric acquisitions were performed on a LSRII cytometer (BD Biosciences). First-line analysis was performed with Flow Jo software, upon gating on the events characterized by normal forward and side scatter parameters and discrimination of doublets in a FSC-A vs. FSC-H bivariate plot. Approximately 30,000 cells were analyzed per experiment, and the mean value was obtained from 3 independent assays.

## Cc1cnc(NC(=O)c2cc(S(=O)(=O)N(C)C)ccc2N2CCCC2)s1 [NGI-1, 5-(N,N-Dimethylsulfamoyl)-N-(5-methylthiazol-2-yl)-2-(pyrrolidin-1-yl)benzamide]
[1]
  EGFR distribution, biotinylated vs non-biotinylated fraction: predominantly found in the non-biotinylated intracellular fraction
[2]
  reduction of cell proliferation, MTT: more than 90%
[3]
  cell cycle distribution: undergo G1 arrest
